{"source": "patent US20110142959A1", "about": "“METHODS, SYSTEMS AND COMPOSITIONS INVOLVED IN THE SYNTHESIS OF NONSTABLE COMPOUNDS” (priority 2009, published 2011)", "assay": "Degradation of ferrate (K2FeO4) in solution at various pH", "format": "physicochemical", "protocol": "FIG. 1 is a profile of the ferrate concentration starting at 0.1% (5 mM) at the native pH of K2FeO4, about 10.7. […] FIGS. 2 and 3 show the ferrate degrading faster at the higher pH's recommended by the Ciampi et al patent(s). Within about 21-46 minutes in the range of pH 11.2-11.8 the ferrate completely degraded. At this higher pH the Fe(OH)3 forms much faster and contributes to the acceleration in degradation.\nFIG. 4 discloses a slightly lower pH of 10.4 which was buffered to approximately pH 9 with NaOH. Ferrate was detected in the solution for about four hours.", "data": [{"substance": "K2FeO4", "values": [{"measurement": "time ferrate was detected in the solution", "setting": "pH 10.4, buffered to approximately pH 9 with NaOH (FIG. 4)", "result": "about four"}, {"measurement": "time within which the ferrate completely degraded", "setting": "pH 11.2-11.8 (FIGS. 2 and 3)", "result": "21 to 46", "unit": "min"}, {"measurement": "time ferrate was present in the solution", "setting": "starting at 0.1% (5 mM), native pH of K2FeO4 about 10.7 (FIG. 1)", "result": "about 220 minutes"}]}]}
